Data reported in patent US9937230B2, “Ophthalmic uses of toxin-based therapeutic peptides and pharmaceutical compositions thereof” (Kineta One, LLC, priority 2013, dated 2018).
“Also recorded” adds a separate entry of the source.

Columns and labels:
[1] = system: rat model of experimental autoimmune anterior uveitis (EAAU); assay: Melanin associated antigen (MAA) induced experimental autoimmune anterior uveitis (EAAU) model; format: in vivo
From the text: One model used to evaluate the therapeutic potential of ShK-186 in autoimmune eye diseases such as uveitis was the melanin associated antigen (MAA) induced experimental autoimmune anterior uveitis (EAAU). In this model, male Lewis rats 5-10 week old (Charles River) are immunized with MAA emulsified in complete Freund's adjuvant (CFA) subcutaneously and also receive a single intraperitoneal injection of pertussis toxin (0.2 to 1 mcg/animal). Symptoms of disease begin to appear by day 10 and peak by day 18 post immunization. The animals typically recover by day 25.
Preparation of the MAA. MAA was prepared following the procedure outlined by Simpsom et al., Eye 11, 206-208, (1997) with some modifications. The iris and ciliary body structure were dissected from 25 fresh pigmented cow eyes. The tissue was cut into small pieces and then homogenized in cold PBS. The homogenate was spun at 4000 g for 10 minutes, washed three times with PBS and then put through a detergent extraction with 2% Triton X-100, rotating for 3 hours at room temperature. The resulting material was again spun and washed three times with PBS and subject to another detergent extraction this time using 2% SDS, rotating for 3 hours at 37° C. This material was washed three times with PBS followed by three washes with H2O and a final wash with 70% ethanol. The MAA pellet was placed under a vacuum for approximately 15 min, resulting in dried antigen material stored frozen at −20° C.
Preparation of MAA:CFA emulsions. For the emulsion used for the experiment whose results are shown in FIG. 4, 50 milligrams of MAA were resuspended in 3.8 mL of PBS, and after vortexing briefly the suspension, was sonicated for 30 seconds three times incubating on ice for 30 seconds in between. This slurry was passed through a 100 μm cell strainer, thicker material was pressed through using a syringe plunger. The protein content of the suspension was determined to be 3.27 mg/mL using a commercially available BCA kit (Pierce 23225), and was stored frozen at −20° C. until use. On the day of immunization (day 0), the stock MAA was thawed at room temperature and vortexed briefly before a working dilution of 600 μg/mL was made. This solution was then mixed drop wise 1:1 with CFA while vortexing, for a final antigen concentration of 300 μg/mL (or 30 μg per animal). Emulsions were allowed to vortex an additional 5 minutes before being loaded into syringes and passed through an 18 G emulsifying bridge until very thick. Emulsions were injected the same day, 50 μL subcutaneous to each footpad, 100 μL total per animal, according to group. FIGS. 4A-D show the pathology associated with this disease model and the effects of ShK-186 topical administration on the occurrence and severity of disease.
Eyes were given individual scores based on pupil function (miosis), iris structure, presence of cells in the anterior chamber, and presence of protein in the anterior chamber (flare). Scores were then converted into a composite clinical score for each day.
For this analysis, sections of eyes previously fixed in 10% formalin were scored for iris and ciliary body structure and the degree of inflammatory cell infiltration to the stroma of the iris and/or ciliary body and anterior chamber according to disease parameters outlined by Kim et al., supra (1997); this was done by an independent veterinary pathologist. In FIG. 4C (1.) a control healthy eye (10×) is shown; (2.) & (4.) show the eye from an animal treated with vehicle that was scored a 2 (10×, 40×); (3.) & (5.) show the eye from an animal treated three times daily with 0.1% ShK-186 for 8 days followed by 1% ShK-186 for 10 days which was given a histopathology score of 0 (10×, 40×).
Clinical observations were made of each animal using a slit lamp on day 13 post induction of EAAU by immunization with an adjuvanted MAA emulsion. […]

[2] = system: human peripheral blood mononuclear cells (PBMCs) stimulated with thapsigargin; assay: Suppression of thapsigargin-stimulated inflammatory cytokine production in human PBMCs; format: cell-based; settings: FIG. 2
From the text: (§1) This Example explores the ability of pharmaceutical compositions including toxin-based therapeutic peptides disclosed herein to reduce pro-inflammatory cytokine secretion caused by thapsigargin (Sigma-Aldrich, St. Louis, Mo., USA). Thapsigargin stimulates proinflammatory cytokine release by inhibiting the Ca2+ ion pump proteins of intracellular membranes in the sarcoplasmic reticulum and endoplasmic reticulum of microsomes. This inhibition results in a rapid release of Ca2+ stores and subsequent activation of plasma membrane calcium channels.
(§2) Preparation of primary blood cells. Whole blood and peripheral blood mononuclear cells (PBMCs) were used to test the suitability of an ShK-based therapeutic peptide as disclosed herein for treating a subject with an ophthalmic condition including dry eye. Whole blood was directly aliquoted to cell culture for experimental assays without any additional processing.
PBMCs were isolated from donor blood by density gradient centrifugation as follows. Blood was collected in collection tubes containing sodium heparin as an anticoagulant and a cell separation medium including a polyester gel and a density gradient liquid (BD Vacutainer CPT). The samples were centrifuged at 1500 RCF for 20 minutes at room temperature. The cell layer containing mononuclear cells and platelets lies just below the plasma layer and was collected into a separate 15 mL conical tube using a Pasteur Pipette. The cells were washed twice with PBS and pelleted by centrifugation to remove the supernatant. The purified PBMCs were resuspended in complete RPMI (cRPMI) cell culture media and plated to the appropriate density for the assay.
(§3) Treatment of primary blood cells. ShK-186 was serially diluted in cRPMI to 4× final concentration working stock. 50 μL of working stock was added to 6 wells of a 96-well cell culture plate per concentration of ShK-based peptide. 50 μL of cRPMI without ShK-based peptide was used as control treatment in positive control (no ShK-based peptide, thapsigargin stimulus) and in negative control (no ShK-based peptide, no thapsigargin stimulus) wells. 100 μL whole blood or 200,000 PBMCs in complete RPMI was added to each well of the 96-well cell culture plate. Cells with ShK-based peptide or media control were incubated at 37° C. and 5% CO2 for one hour. After one hour, 50 μL of 40 uM thapsigargin stimulus was added to all wells except for negative control wells which received 50 μL 0.4% DMSO to 0.1% final concentration. Cells were incubated for 48 hours.
(§4) Analysis of ShK-based peptide treated and thapsigargin stimulated cells. 48 hours after stimulation by thapsigargin, 96-well plates were centrifuged at 2000 RPM for 5 minutes. The supernatant was carefully transferred to a sterile 96-well plate for sample analysis. Cytokines were detected using specific antibodies conjugated to magnetic beads and a secondary antibody that reacts with Streptavidin/Phycoerythrin to produce a fluorescent signal. The bound beads were detected and quantified using the Magpix instrument (Luminex Corp., Austin, Tex., USA), although similar techniques as are known in the art may be used to measure protein production, such as for example an ELISA, using methods of detection including fluorescent and colorimetric methods.

[3] = system: T cells or macrophages from dry-eye or uveitis patients; assay: Ex vivo proliferation of T cells or macrophages during ex vivo activation; format: cell-based, human; settings: [3H] thymidine incorporation or CFSE
From the text: (§5) In order to carry out functional assays, PBMCs from uveitis or dry eye patients and healthy controls are isolated. In the first phase of the example, the cells are either tested shortly after […] without ex vivo stimulation or activated ex vivo with anti-CD3 and anti-CD28 antibodies or mitogens and then subjected to immunostaining and multicolor flow cytometry to study expression levels of Kv1.3 channel on the surface of TEM within the CD4 and CD8+ T-cell subsets. Cells isolated from patients are expected to be high in expression of Kv1.3 without stimulation ex vivo, but this expression could increase upon activation ex vivo. […] Cytokines including IFN-γ, IL-2, IL-4, IL-10, IL-17, IL-21, and IL-22, perforin, and granzyme B are detected by intracellular staining and flow cytometry in resting or activated cells in the presence or absence of toxin-based therapeutic peptide. Additionally, they can be quantitated by an assay such as multiplexing ELISA of collected supernatants. […] This reduction can be measured by quantification of [^3H] thymidine incorporation or the fluorescent dye CFSE, among other standard immunological methods.

[4] = system: human whole blood stimulated with thapsigargin; assay: Suppression of thapsigargin-stimulated inflammatory cytokine production in human whole blood; format: cell-based; settings: FIG. 1
From the text: as §1, §2, §3, §4

[5] = system: unstimulated or activated T cells or macrophages from dry-eye or uveitis patients; assay: Ex vivo cytokine expression in T cells or macrophages from dry eye or uveitis patients; format: cell-based, human; settings: ex vivo addition of ShK-186, intracellular staining/flow cytometry or multiplexing ELISA
From the text: as §5

[6] = Local (eye) and systemic (plasma) drug levels after topical ocular administration, Sprague-Dawley rats, ELISA; format: in vivo, rat
Protocol: Three female 6-8 week old Sprague-Dawley rats (Indianapolis, Ind., USA) were dosed three times per day with topically administered 10 μL of P6N (sodium phosphate (10 mM), sodium chloride (0.8%), and Polysorbate 20 (0.05%) at pH 6.0) on the left eye (LE) and 10 μL of 0.5% ShK-186 in P6N on the right eye (RE) for 21 days. Blood was collected at 3, 7, 12, 14, 17, and 21 days and processed to plasma. […] ShK-186 levels in collected samples were measured using a standard direct ELISA method.

[7] = PBMCs treated with ShK-186 one hour prior to thapsigargin, supernatant 48 hours after stimulation
[8] = PBMCs, thapsigargin stimulation
[9] = day 18 post immunization, 0.1% then 1% ShK-186 topically
[10] = whole blood treated with ShK-186 one hour prior to thapsigargin, supernatant 48 hours after stimulation
[11] = whole blood, thapsigargin stimulation

For “(L-Tyr)-AEEAc-RSCIDTIPKSRCTAFQCKHSMKYRLSFCRKTCGTC-amide [ShK-198]”, the “clinical score (cells in the anterior chamber; protein in the anterior chamber or flare)” value ([1]; slit lamp day 13 post induction, 1% ShK-198 topically three times daily versus P6N vehicle, N=10 rats/20 eyes) was “reduces”.

For “(L-PhosphoTyr)-AEEAc-RSCIDTIPKSRCTAFQCKHSMKYRLSFCRKTCGTC-amide [ShK-186]”, the “suppression of IFN-γ level” value [2, 7] was “suppressed; also recorded: dose-dependent manner”, the “suppression of IL-2 level” value [2, 7] was “suppressed; also recorded: dose-dependent manner” and the “suppression of IL-4 level” value [2, 7] was “suppressed; also recorded: dose-dependent manner”. The “suppression of IL-17 level” value [2, 7] was “suppressed; also recorded: dose-dependent manner”, the “IC50, IFN-γ suppression” value [2, 8] was “picomolar range” and the “IC50, IL-2 suppression” value [2, 8] was “picomolar range”. For the same substance, the “IC50, IL-4 suppression” value [2, 8] was “picomolar range”, the “IC50, IL-17 suppression” value [2, 8] was “picomolar range” and the “ex vivo proliferation of T cells or macrophages” value [3] was “significantly reduces”. The gross pathology ([1]; ShK-186 topical administration versus vehicle (P6N), FIG. 4B) was “reduced”, the “composite clinical score of animal 4-8” value ([1]; day 18 post immunization, 0.1% ShK-186 for 9 days then 1% for 10 days topically, vehicle animal 3-2 scored 13) was 0 and the “cells in the anterior chamber score of animal 4-8” value [1, 9] was 0. The “iris vessels and structure score of animal 4-8” value [1, 9] was 0, the “protein in the anterior chamber (flare) score of animal 4-8” value [1, 9] was 0 and the “pupil score of animal 4-8” value [1, 9] was 0. The histopathology ([1]; eyes collected day 19 post immunization, H&E sections, FIG. 4C) was “reduces”, the “composite clinical score versus vehicle” value ([1]; slit lamp, days 11, 13, 15, 18 post induction, topical three times daily 0.1% day 0-8 and 1% ShK-186 day 9-18, N=8 rats/16 eyes) was “significantly lower” and the “histopathology score of an eye from a treated animal” value ([1]; three times daily 0.1% ShK-186 followed by 1% ShK-186 for 10 days, vehicle eye scored 2) was 0. The “suppression of IFN-γ level” value [4, 10] was “dose-dependent manner; also recorded: suppressed”, the “suppression of IL-2 level” value [4, 10] was “dose-dependent manner; also recorded: suppressed” and the “suppression of IL-4 level” value [4, 10] was “dose-dependent manner; also recorded: suppressed”. The “suppression of IL-17 level” value [4, 10] was “dose-dependent manner; also recorded: suppressed”, the “IC50, IFN-γ suppression” value [4, 11] was “picomolar range” and the “IC50, IL-2 suppression” value [4, 11] was “picomolar range”. The “IC50, IL-4 suppression” value [4, 11] was “picomolar range”, the “IC50, IL-17 suppression” value [4, 11] was “picomolar range” and the “expression of cytokines (IFN-γ, IL-2, IL-4, IL-10, IL-17, IL-21, IL-22, perforin, granzyme B)” value [5] was “significantly reduces”. For the same substance, the “ShK-186 in plasma (systemic exposure)” value ([6]; 0.5% ShK-186 topically to right eye three times per day for 21 days) was “no detectable and not”, the “ShK-186 concentration in aqueous fluid of the treated right eye (RE)” value ([6]; 10 μL of 0.5% ShK-186 in P6N topically three times per day for 21 days, samples at 21 days) was “significant concentrations” and the “ShK-186 in samples from the untreated left eye (LE)” value ([6]; right eye dosed 0.5% ShK-186 three times per day for 21 days, left eye vehicle) was “no detectable”.
